Reference: ChEMBL document CHEMBL5634112, “Synthesis and biological evaluation of fluoroquinolones containing a pyridoxine derivatives moiety” (Eur J Med Chem, 2023)
Converted amounts (≈) assume the structure as drawn.

How the values were obtained:
[1] = tested on: Escherichia coli; assay: Antibacterial activity against Escherichia coli ATCC 25922 assessed as reduction in microbial growth incubated for 24 hrs by broth microdilution method; format: functional
[2] = tested on: Staphylococcus aureus; assay: Antibacterial activity against methicillin sensitive Staphylococcus aureus ATCC 29213 assessed as reduction in microbial growth incubated for 24 hrs by broth microdilution method; format: functional
[3] = tested on: Bacillus subtilis; assay: Antibacterial activity against Bacillus subtilis 168 assessed as reduction in microbial growth incubated for 24 hrs by broth microdilution method; format: functional
[4] = tested on: Salmonella typhimurium; assay: Antibacterial activity against Salmonella typhimurium TA100 assessed as reduction in microbial growth incubated for 24 hrs by broth microdilution method; format: functional, Salmonella enterica subsp. enterica serovar Typhimurium; details: Salmonella enterica
[5] = tested on: Pseudomonas aeruginosa; assay: Antibacterial activity against Pseudomonas aeruginosa ATCC 27853 assessed as reduction in microbial growth incubated for 24 hrs by broth microdilution method; format: functional
[6] = tested on: Staphylococcus epidermidis; assay: Antibacterial activity against clinical isolate Staphylococcus epidermidis assessed as reduction in microbial growth incubated for 24 hrs by broth microdilution method; format: functional
[7] = tested on: Micrococcus luteus; assay: Antibacterial activity against clinical isolate Micrococcus luteus assessed as reduction in microbial growth incubated for 24 hrs by broth microdilution method; format: functional
[8] = tested on: Staphylococcus haemolyticus; assay: Antibacterial activity against clinical isolate Staphylococcus haemolyticus 1464 assessed as reduction in microbial growth incubated for 24 hrs by broth microdilution method; format: functional
[9] = tested on: Staphylococcus aureus; assay: Antibacterial activity against clinical isolate Staphylococcus aureus 1812 assessed as reduction in microbial growth incubated for 24 hrs by broth microdilution method; format: functional
[10] = tested on: Klebsiella pneumoniae; assay: Antibacterial activity against clinical isolate Klebsiella pneumoniae 1678 assessed as reduction in microbial growth incubated for 24 hrs by broth microdilution method; format: functional
[11] = Cytotoxicity against human HSF assessed as reduction in cell viability incubated for 72 hrs by MTT assay; format: toxicity, cell-based; details: HSF cells
[12] = Cytotoxicity against human CHL assessed as reduction in cell viability incubated for 72 hrs by MTT assay; format: toxicity, cell-based; details: CHL cells
[13] = tested on: Enterococcus faecalis; assay: Antibacterial activity against clinical isolate Enterococcus faecalis 1465 assessed as reduction in microbial growth incubated for 24 hrs by broth microdilution method; format: functional
[14] = Cytotoxicity against human MSC assessed as reduction in cell viability incubated for 72 hrs by MTT assay; format: toxicity, cell-based; details: MSC cells
[15] = tested on: Pseudomonas aeruginosa; assay: Antibacterial activity against clinical isolate Pseudomonas aeruginosa NKC 17 assessed as reduction in microbial growth incubated for 24 hrs by broth microdilution method; format: functional
[16] = tested on: Staphylococcus aureus; assay: Antibacterial activity against clinical isolate Staphylococcus aureus 4721 assessed as reduction in microbial growth incubated for 24 hrs by broth microdilution method; format: functional
[17] = tested on: Escherichia coli; assay: Antibacterial activity against clinical isolate Escherichia coli NKC 1 assessed as reduction in microbial growth incubated for 24 hrs by broth microdilution method; format: functional
[18] = tested on: Cedecea davisae; assay: Antibacterial activity against clinical isolate Cedecea davisae 1813 assessed as reduction in microbial growth incubated for 24 hrs by broth microdilution method; format: functional
[19] = tested on: Staphylococcus aureus; assay: Antibacterial activity against clinical isolate methicillin resistant Staphylococcus aureus 4771 assessed as reduction in microbial growth incubated for 24 hrs by broth microdilution method; format: functional
[20] = tested on: Staphylococcus auricularis; assay: Antibacterial activity against clinical isolate Staphylococcus auricularis NKC 7 assessed as reduction in microbial growth incubated for 24 hrs by broth microdilution method; format: functional
[21] = tested on: Staphylococcus haemolyticus; assay: Antibacterial activity against clinical isolate Staphylococcus haemolyticus NKC 31/2 assessed as reduction in microbial growth incubated for 24 hrs by broth microdilution method; format: functional
[22] = tested on: Klebsiella aerogenes; assay: Antibacterial activity against clinical isolate Enterobacter aerogenes NKC 8 assessed as reduction in microbial growth incubated for 24 hrs by broth microdilution method; format: functional
[23] = tested on: Staphylococcus epidermidis; assay: Antibacterial activity against clinical isolate Staphylococcus epidermidis NKC 37/1 assessed as reduction in microbial growth incubated for 24 hrs by broth microdilution method; format: functional

MIC [1] [µg/mL] | MIC [2] [µg/mL] | MIC [3] [µg/mL] | MIC [4] [µg/mL] | MIC [5] [µg/mL] | MIC [6] [µg/mL] | MIC [7] [µg/mL] | SMILES | further results
8 | 64 | 4 | 2 | > 64 | 16 | > 64 | CCn1cc(C(=O)O)c(=O)c2cc(F)c(N3CCN(Cc4nc(C)c5c(c4CO)COC(C)(C)O5)C(C)C3)c(F)c21 (centres undefined) | 
> 64 | 32 | 8 | 16 | > 64 | 32 | 64 | CCn1cc(C(=O)O)c(=O)c2cc(F)c(N3CCN(Cc4cnc(C)c5c4COC(C)O5)CC3)cc21 (centres undefined) | 
> 64 | 32 | 2 | 4 | > 64 | 64 | 64 | CCCCCCCCC1OCc2c(CN3CCN(c4cc5c(cc4F)c(=O)c(C(=O)O)cn5C4CC4)CC3)cnc(C)c2O1 (centres undefined) | 
64 | 16 | 4 | 4 | > 64 | 32 | 32 | CCn1cc(C(=O)O)c(=O)c2cc(F)c(N3CCN(Cc4cnc(C)c(O)c4CO)CC3)cc21.Cl | 
64 | 8 | 2 | 4 | > 64 | 8 | 8 | Cc1nc(CN2CCN(c3cc4c(cc3F)c(=O)c(C(=O)O)cn4C3CC3)CC2)c(CO)c2c1OC(C)(C)OC2 | 
> 64 | 16 | 2 | 2 | > 64 | 32 | 64 | CCCC1OCc2c(CN3CCN(c4cc5c(cc4F)c(=O)c(C(=O)O)cn5CC)CC3)cnc(C)c2O1 (centres undefined) | 
> 64 | 8 | 4 | 16 | > 64 | 32 | 8 | CCn1cc(C(=O)O)c(=O)c2cc(F)c(N3CCN(Cc4nc(C)c(O)c(CO)c4CO)CC3)cc21.Cl | 
64 | > 64 | 64 | > 64 | > 64 | > 64 | > 64 | CCn1cc(C(=O)O)c(=O)c2cc(F)c(N3CCN(Cc4cnc(C)c5c4COC(C)(C)O5)CC3)cc21 | 
2 | 2 | 1 | 2 | > 64 | > 64 | 32 | CCn1cc(C(=O)O)c(=O)c2cc(F)c(N3CCN(Cc4cnc(C)c(O)c4C)C(C)C3)c(F)c21.Cl (centres undefined) | 
> 64 | 8 | 2 | 4 | > 64 | 8 | 8 | Cc1ncc(CN2CCN(c3cc4c(cc3F)c(=O)c(C(=O)O)cn4C3CC3)CC2)c2c1OC(C)OC2.Cl (centres undefined) | 

Further lines, the molecule ahead of its results:

SMILES | MIC [1] [µg/mL] | MIC [2] [µg/mL] | MIC [3] [µg/mL] | MIC [4] [µg/mL] | MIC [5] [µg/mL] | MIC [6] [µg/mL] | MIC [7] [µg/mL] | further results
Cc1ncc(CN2CCN(c3cc4c(cc3F)c(=O)c(C(=O)O)cn4C3CC3)CC2)c2c1OCOC2.Cl | 8 | 1 | 2 | 0.5 | 32 | 0.5 | 16 | MIC [8]: 0.13 µg/mL; MIC [9]: 0.25 µg/mL; MIC [10]: 16 µg/mL; CC50 at 72 h [11]: 40.3 µg/mL; CC50 at 72 h [12]: 14.9 µg/mL; MIC [13]: 8 µg/mL; CC50 at 72 h [14]: 69.5 µg/mL; MIC [15]: 32 µg/mL; MIC [16]: 0.13 µg/mL; MIC [17]: 2 µg/mL; MIC [18]: 0.03 µg/mL; MIC [19]: 2 µg/mL; MIC [20]: 0.03 µg/mL; MIC [21]: 8 µg/mL; MIC [22]: 16 µg/mL; MIC [23]: 0.25 µg/mL
CCn1cc(C(=O)O)c(=O)c2cc(F)c(N3CCN(Cc4nc(C)c(O)c(CO)c4CO)C(C)C3)c(F)c21.Cl (centres undefined) | 2 | 2 | 2 | 2 | > 64 | 64 | 64 | 
CCn1cc(C(=O)O)c(=O)c2cc(F)c(N3CCNCC3)cc21 [NORFLOXACIN] | 1 | 2 | 1 | 1 | 4 | 1 | 8 | MIC [8]: 2 µg/mL; MIC [9]: 2 µg/mL; MIC [10]: 1 µg/mL; CC50 at 72 h [11]: 38.1 µg/mL (≈ 119 µM); CC50 at 72 h [12]: 38.1 µg/mL (≈ 119 µM); MIC [13]: > 64 µg/mL; CC50 at 72 h [14]: 29.3 µg/mL (≈ 91.9 µM); MIC [15]: 0.25 µg/mL; MIC [16]: 1 µg/mL; MIC [17]: 0.06 µg/mL; MIC [18]: 1 µg/mL; MIC [19]: 1 µg/mL; MIC [20]: 0.13 µg/mL; MIC [21]: 8 µg/mL; MIC [22]: 1 µg/mL; MIC [23]: 4 µg/mL
CCCCCCCCC1OCc2c(CN3CCC[C@H]4CN(c5c(F)cc6c(=O)c(C(=O)O)cn(C7CC7)c6c5OC)C[C@H]43)cnc(C)c2O1 (some centres undefined) | > 64 | 16 | 8 | 16 | > 64 | 32 | 16 | 
Cc1nc(CN2CCN(c3cc4c(cc3F)c(=O)c(C(=O)O)cn4C3CC3)CC2)c(CO)c(CO)c1O.Cl | 64 | 64 | 2 | 4 | > 64 | 32 | 32 | 
COc1c(N2C[C@@H]3CCCN(Cc4cnc(C)c5c4COC(C)O5)[C@@H]3C2)c(F)cc2c(=O)c(C(=O)O)cn(C3CC3)c12 (some centres undefined) | 16 | 1 | 1 | 4 | > 64 | 4 | 4 | 
CCn1cc(C(=O)O)c(=O)c2cc(F)c(N3CCN(Cc4cnc(C)c5c4COCO5)C(C)C3)c(F)c21.Cl (centres undefined) | 16 | 8 | 4 | 4 | > 64 | 16 | 32 | 
CCn1cc(C(=O)O)c(=O)c2cc(F)c(N3CCN(Cc4c(CO)nc(C)c(O)c4CO)CC3)cc21.Cl | 8 | 8 | 8 | 4 | > 64 | 16 | 16 | 
CCn1cc(C(=O)O)c(=O)c2cc(F)c(N3CCN(Cc4cnc(C)c5c4COC(C)O5)C(C)C3)c(F)c21 (centres undefined) | > 64 | 2 | 2 | 2 | 16 | 8 | > 64 | 
CCCCCCCCC1OCc2c(CN3CCN(c4cc5c(cc4F)c(=O)c(C(=O)O)cn5CC)CC3)cnc(C)c2O1 (centres undefined) | > 64 | > 64 | 64 | > 64 | > 64 | > 64 | > 64 | 
CCn1cc(C(=O)O)c(=O)c2cc(F)c(N3CCN(Cc4cnc(C)c(O)c4C)CC3)cc21.Cl | 2 | 4 | 2 | 64 | > 64 | 16 | 8 | 
CCCC1OCc2c(CN3CCN(c4cc5c(cc4F)c(=O)c(C(=O)O)cn5C4CC4)CC3)cnc(C)c2O1 (centres undefined) | > 64 | 64 | 2 | 4 | > 64 | 64 | 64 | 
CCCC1OCc2c(CN3CCN(c4c(F)cc5c(=O)c(C(=O)O)cn(CC)c5c4F)CC3C)cnc(C)c2O1 (centres undefined) | > 64 | 16 | 2 | 2 | > 64 | 8 | 16 | 
CCn1cc(C(=O)O)c(=O)c2cc(F)c(N3CCN(Cc4cnc(C)c5c4COC(C)(C)O5)C(C)C3)c(F)c21.Cl (centres undefined) | > 64 | 16 | 2 | 2 | > 64 | 64 | 8 | 
Cc1ncc(CN2CCN(c3cc4c(cc3F)c(=O)c(C(=O)O)cn4C3CC3)CC2)c2c1OC(C)(C)OC2.Cl | 64 | 32 | 2 | 4 | > 64 | 16 | 32 | 
CCCCCCCCC1OCc2c(CN3CCN(c4c(F)cc5c(=O)c(C(=O)O)cn(CC)c5c4F)CC3C)cnc(C)c2O1 (centres undefined) | > 64 | > 64 | > 64 | > 64 | > 64 | > 64 | > 64 | 
